PubChem BioAssay (NCI)
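Each compound was tested at five concentrations against cells in 96-well plates for 48 hours. TGI marks complete inhibition of growth.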

What was measured:
Assay in all cases: NCI tumour cell line growth inhibition, 48 h
[1] = system: DLD-1 colon
[2] = system: DMS 273 small cell lung
[3] = system: KM20L2 colon
[4] = system: LXFL 529 NSCLC
[5] = system: SNB-78 CNS
[6] = system: XF 498 CNS
[7] = system: HOP-18 NSCLC
[8] = system: P388 leukemia
[9] = system: P388/ADR leukemia
[10] = system: SN12K1 renal

| Compound | TGI [1] | TGI [2] | TGI [3] | TGI [4] | TGI [5] | TGI [6] | TGI [7] | TGI [8] | TGI [9] | TGI [10] |
| --- | --- | --- | --- | --- | --- | --- | --- | --- | --- | --- |
| C=CCN1/C(=C2\SC(=S)N(c3ccc(C)cc3)C2=O)Sc2c1ncn(C)c2=O | > 100 µM | > 100 µM | > 100 µM | > 100 µM | > 100 µM | > 100 µM |  |  |  |  |
| COC(=O)[C@]1(c2ccc(N(C)C)cc2OC)C[C@@H]2CCCN(CCc3c1[nH]c1ccccc31)C2 | > 64.1 µM | 45.1 µM | 32.5 µM |  | > 91.1 µM | 34.1 µM | > 58.7 µM | 36 µM | 47.1 µM | 34.6 µM |
| C=CC(C)C1(CCCOCc2ccccc2)C(=S)N2CCC3(CC24CCCC14)OCCO3 (stereo unspecified) | > 100 µM | > 100 µM | > 100 µM | > 100 µM | > 100 µM | 52.7 µM | > 100 µM |  |  |  |
| CNC(=O)SCC(NC(=O)CCC(N)C(=O)O)C(=O)NCC(=O)O (stereo unspecified) | > 100 µM | > 100 µM | > 100 µM |  | > 100 µM | > 100 µM | > 100 µM | > 100 µM | > 100 µM | > 100 µM |
| Cc1ccc(S(=O)(=O)C2=c3nc4ccccc4cc3=C3C(=O)c4ccccc4C(=O)C32)cc1 (stereo unspecified) | > 100 µM | > 100 µM | > 100 µM | > 100 µM |  | > 100 µM |  |  |  |  |
| O=C(Nc1ccccc1Cl)c1ccc([N+](=O)[O-])cc1 | > 100 µM | > 100 µM | > 100 µM |  | > 100 µM | > 100 µM |  |  |  |  |
| OC12c3ccccc3C1CCCCCCCCCC21OCCO1 (stereo unspecified) |  | > 100 µM | > 100 µM | > 100 µM | > 100 µM |  | > 100 µM |  |  |  |
